{"source": "paper PMC9516332", "about": "(Frontiers in Oncology, 2022)", "origin": "cited, not measured here", "key": {"[1]": {"molecular_target": "panel of 255 wild-type kinases (Homo sapiens, UniProt O00311)", "sequence (O00311 whole entry)": "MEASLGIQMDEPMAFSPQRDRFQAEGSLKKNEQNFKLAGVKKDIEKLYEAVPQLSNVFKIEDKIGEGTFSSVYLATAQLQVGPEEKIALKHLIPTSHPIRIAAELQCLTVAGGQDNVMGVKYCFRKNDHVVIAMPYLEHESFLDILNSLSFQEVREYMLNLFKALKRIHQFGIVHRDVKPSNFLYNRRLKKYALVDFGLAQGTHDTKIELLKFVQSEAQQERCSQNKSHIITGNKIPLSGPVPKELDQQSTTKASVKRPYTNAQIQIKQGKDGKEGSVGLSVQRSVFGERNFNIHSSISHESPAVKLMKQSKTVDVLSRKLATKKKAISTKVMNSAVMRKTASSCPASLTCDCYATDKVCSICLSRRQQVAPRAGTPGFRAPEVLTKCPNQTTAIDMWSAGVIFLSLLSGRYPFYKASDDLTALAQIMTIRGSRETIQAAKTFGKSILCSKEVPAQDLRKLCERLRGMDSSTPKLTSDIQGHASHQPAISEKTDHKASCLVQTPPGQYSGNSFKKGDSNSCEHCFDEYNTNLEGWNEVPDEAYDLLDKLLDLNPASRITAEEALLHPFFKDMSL", "details": "CDC7/ASK kinase assay; 1 µmol/L single concentration; ref DOI: 10.1371/journal.pone.0092146; cited from earlier work"}, "[2]": {"molecular_target": "panel of 255 wild-type kinases (Homo sapiens, UniProt Q9Y243)", "sequence (Q9Y243 whole entry)": "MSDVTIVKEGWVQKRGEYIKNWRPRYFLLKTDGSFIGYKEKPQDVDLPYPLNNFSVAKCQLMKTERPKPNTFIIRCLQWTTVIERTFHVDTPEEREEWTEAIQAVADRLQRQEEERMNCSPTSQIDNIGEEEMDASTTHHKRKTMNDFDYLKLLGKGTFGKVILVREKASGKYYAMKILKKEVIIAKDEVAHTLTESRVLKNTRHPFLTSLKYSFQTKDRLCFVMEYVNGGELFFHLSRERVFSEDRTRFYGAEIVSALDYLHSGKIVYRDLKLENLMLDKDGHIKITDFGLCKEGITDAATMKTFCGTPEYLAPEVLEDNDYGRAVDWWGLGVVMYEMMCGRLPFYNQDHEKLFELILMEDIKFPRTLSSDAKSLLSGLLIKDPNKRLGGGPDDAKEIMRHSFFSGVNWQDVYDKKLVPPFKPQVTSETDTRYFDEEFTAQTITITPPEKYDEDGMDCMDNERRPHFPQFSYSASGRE", "details": "AKT3 kinase assay; 1 µmol/L single concentration; ref DOI: 10.1371/journal.pone.0092146; cited from earlier work"}, "[3]": {"molecular_target": "panel of 255 wild-type kinases (Homo sapiens, UniProt Q9H1R3)", "sequence (Q9H1R3 whole entry)": "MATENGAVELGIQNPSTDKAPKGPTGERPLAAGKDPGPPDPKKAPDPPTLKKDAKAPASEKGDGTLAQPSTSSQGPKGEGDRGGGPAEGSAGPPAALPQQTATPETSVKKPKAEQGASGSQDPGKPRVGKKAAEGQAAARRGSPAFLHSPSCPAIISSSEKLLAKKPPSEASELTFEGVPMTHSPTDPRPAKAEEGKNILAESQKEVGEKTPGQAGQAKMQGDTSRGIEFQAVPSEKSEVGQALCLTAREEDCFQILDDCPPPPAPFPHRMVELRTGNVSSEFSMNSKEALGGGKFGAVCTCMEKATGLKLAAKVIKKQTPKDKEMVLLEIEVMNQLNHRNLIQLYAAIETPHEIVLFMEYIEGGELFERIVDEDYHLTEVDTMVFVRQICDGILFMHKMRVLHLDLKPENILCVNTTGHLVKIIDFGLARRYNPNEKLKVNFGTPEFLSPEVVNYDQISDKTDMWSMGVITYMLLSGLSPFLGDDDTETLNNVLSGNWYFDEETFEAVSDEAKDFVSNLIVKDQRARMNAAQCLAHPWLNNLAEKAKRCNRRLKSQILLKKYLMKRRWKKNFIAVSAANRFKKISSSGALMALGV", "details": "kinase skMLCK; 1 µmol/L single concentration; ref DOI: 10.1371/journal.pone.0092146; cited from earlier work"}, "[4]": {"molecular_target": "panel of 255 wild-type kinases (Homo sapiens, UniProt Q9H4B4)", "sequence (Q9H4B4 whole entry)": "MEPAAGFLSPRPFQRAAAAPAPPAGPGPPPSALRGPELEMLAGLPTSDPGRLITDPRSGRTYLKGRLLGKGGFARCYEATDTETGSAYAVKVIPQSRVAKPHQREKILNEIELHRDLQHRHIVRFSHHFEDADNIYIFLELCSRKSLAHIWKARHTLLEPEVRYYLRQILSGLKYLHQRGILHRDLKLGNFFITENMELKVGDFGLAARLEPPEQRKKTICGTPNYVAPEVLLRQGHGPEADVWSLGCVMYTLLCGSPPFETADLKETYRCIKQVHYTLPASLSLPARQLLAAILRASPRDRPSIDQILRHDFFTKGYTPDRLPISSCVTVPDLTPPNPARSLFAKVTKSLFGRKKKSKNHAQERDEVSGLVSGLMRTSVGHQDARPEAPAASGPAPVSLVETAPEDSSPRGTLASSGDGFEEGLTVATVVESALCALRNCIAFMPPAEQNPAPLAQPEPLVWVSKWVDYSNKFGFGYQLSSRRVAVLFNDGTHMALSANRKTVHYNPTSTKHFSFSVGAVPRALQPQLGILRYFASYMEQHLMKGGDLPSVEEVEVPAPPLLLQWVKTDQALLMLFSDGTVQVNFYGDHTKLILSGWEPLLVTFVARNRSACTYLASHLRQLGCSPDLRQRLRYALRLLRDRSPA", "details": "kinase PLK3; 1 µmol/L single concentration; ref DOI: 10.1371/journal.pone.0092146; cited from earlier work"}, "[5]": {"molecular_target": "T1, panel of 255 wild-type kinases (Homo sapiens, UniProt P54760)", "T1 sequence (P54760 16-987)": "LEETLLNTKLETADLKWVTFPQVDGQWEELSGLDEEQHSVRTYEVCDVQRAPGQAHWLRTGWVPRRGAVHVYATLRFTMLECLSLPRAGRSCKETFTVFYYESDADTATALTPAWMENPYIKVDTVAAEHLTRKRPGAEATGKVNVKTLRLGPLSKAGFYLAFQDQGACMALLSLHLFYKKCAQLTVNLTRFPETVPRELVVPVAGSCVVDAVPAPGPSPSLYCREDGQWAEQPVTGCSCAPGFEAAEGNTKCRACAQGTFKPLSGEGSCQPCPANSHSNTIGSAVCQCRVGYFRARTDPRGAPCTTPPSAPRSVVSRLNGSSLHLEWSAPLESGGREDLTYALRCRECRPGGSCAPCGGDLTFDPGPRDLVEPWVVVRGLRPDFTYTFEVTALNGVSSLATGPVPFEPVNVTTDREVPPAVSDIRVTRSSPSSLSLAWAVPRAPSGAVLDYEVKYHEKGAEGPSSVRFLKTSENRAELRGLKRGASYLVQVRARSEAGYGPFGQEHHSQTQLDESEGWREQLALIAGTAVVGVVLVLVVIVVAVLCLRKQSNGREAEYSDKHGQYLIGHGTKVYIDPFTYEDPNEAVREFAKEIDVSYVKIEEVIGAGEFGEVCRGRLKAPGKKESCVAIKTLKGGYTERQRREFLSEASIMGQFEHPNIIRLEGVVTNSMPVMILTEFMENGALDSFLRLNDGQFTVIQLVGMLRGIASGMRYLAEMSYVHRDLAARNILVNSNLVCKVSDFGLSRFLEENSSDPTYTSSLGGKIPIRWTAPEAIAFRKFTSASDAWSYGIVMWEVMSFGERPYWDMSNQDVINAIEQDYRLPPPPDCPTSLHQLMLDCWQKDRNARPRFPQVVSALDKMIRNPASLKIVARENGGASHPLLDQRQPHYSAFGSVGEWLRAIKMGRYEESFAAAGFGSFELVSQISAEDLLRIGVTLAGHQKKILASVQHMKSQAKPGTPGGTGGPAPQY", "details": "kinase EPHB4; 1 µmol/L single concentration; ref DOI: 10.1371/journal.pone.0092146; cited from earlier work"}, "[6]": {"molecular_target": "T2, panel of 255 wild-type kinases (Homo sapiens, UniProt O43781)", "T2 sequence (O43781 1-588)": "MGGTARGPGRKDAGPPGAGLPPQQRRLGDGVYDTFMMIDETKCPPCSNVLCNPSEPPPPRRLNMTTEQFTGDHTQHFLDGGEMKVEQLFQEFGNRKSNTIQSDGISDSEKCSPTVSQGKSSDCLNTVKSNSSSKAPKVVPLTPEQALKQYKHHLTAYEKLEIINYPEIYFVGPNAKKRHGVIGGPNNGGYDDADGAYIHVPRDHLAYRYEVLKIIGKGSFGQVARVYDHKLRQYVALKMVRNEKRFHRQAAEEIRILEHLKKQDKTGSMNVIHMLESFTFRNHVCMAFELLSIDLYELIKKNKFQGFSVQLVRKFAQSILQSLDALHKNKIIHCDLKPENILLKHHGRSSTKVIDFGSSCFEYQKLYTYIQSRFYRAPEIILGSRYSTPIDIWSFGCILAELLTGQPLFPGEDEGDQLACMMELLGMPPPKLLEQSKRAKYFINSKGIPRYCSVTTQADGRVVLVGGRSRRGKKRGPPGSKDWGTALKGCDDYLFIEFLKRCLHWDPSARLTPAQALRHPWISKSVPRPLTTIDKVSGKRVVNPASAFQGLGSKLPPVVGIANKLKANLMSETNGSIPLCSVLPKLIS", "details": "kinase DYRK3; 1 µmol/L single concentration; ref DOI: 10.1371/journal.pone.0092146; cited from earlier work"}, "[7]": {"molecular_target": "panel of 255 wild-type kinases (Homo sapiens, UniProt P53350)", "sequence (P53350 whole entry)": "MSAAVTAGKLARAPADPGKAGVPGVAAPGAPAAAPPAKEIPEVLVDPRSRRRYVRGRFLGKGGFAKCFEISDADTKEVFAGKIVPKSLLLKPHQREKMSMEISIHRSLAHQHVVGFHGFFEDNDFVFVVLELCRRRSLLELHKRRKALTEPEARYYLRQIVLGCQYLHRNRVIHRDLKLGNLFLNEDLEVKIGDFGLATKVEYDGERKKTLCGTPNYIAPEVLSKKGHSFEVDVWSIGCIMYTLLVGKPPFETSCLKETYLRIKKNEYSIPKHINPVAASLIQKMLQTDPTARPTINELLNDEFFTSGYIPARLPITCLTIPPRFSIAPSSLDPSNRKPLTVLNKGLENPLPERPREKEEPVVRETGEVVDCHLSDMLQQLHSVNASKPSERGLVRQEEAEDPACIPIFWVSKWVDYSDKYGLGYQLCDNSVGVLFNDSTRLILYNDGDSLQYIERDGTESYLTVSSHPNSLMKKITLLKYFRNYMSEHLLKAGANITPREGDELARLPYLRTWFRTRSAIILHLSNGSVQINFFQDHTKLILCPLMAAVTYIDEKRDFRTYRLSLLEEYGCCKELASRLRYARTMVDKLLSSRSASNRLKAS", "details": "kinase PLK1; 1 µmol/L single concentration; ref DOI: 10.1371/journal.pone.0092146; cited from earlier work"}, "[8]": {"molecular_target": "panel of 255 wild-type kinases (Homo sapiens, UniProt P68400)", "sequence (P68400 whole entry)": "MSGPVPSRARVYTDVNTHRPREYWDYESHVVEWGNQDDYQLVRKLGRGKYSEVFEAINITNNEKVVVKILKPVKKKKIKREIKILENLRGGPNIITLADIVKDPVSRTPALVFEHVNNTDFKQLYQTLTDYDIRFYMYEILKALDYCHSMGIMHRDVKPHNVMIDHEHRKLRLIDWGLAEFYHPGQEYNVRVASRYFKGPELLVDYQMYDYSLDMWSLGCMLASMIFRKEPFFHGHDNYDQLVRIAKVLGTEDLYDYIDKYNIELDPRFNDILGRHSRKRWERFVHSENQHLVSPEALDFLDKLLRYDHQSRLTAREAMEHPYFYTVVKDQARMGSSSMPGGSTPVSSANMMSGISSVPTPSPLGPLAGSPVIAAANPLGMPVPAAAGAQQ", "details": "kinase CK2α1/β; 1 µmol/L single concentration; ref DOI: 10.1371/journal.pone.0092146; cited from earlier work"}}, "data": [{"smiles": "CCCS(=O)(=O)Nc1ccc(F)c(C(=O)c2c[nH]c3ncc(-c4ccc(Cl)cc4)cc23)c1F", "note": "[vemurafenib]", "values": [{"measurement": "%-inhibition CDC7/ASK", "setting": "[1]", "value": -7, "unit": "%"}, {"measurement": "%-inhibition AKT3", "setting": "[2]", "value": -0.678, "unit": "%"}, {"measurement": "%-inhibition at 1 µmol/L, skMLCK", "setting": "[3]", "value": 53, "unit": "%"}, {"measurement": "%-inhibition at 1 µmol/L, PLK3", "setting": "[4]", "value": -2.83, "unit": "%"}, {"measurement": "%-inhibition at 1 µmol/L, EPHB4", "setting": "[5]", "value": 3.73, "unit": "%"}, {"measurement": "%-inhibition at 1 µmol/L, DYRK3", "setting": "[6]", "value": 5, "unit": "%"}, {"measurement": "%-inhibition at 1 µmol/L, PLK1", "setting": "[7]", "value": -4, "unit": "%"}, {"measurement": "%-inhibition at 1 µmol/L, CK2α1/β", "setting": "[8]", "value": -5.39, "unit": "%"}]}]}
